Results reported in ChEMBL document CHEMBL4014328, “Piperazin-1-ylpyridazine Derivatives Are a Novel Class of Human dCTP Pyrophosphatase 1 Inhibitors” (J Med Chem, 2017).

Legend:
[1] = biological target: T1, Stearoyl-CoA desaturase (Homo sapiens, UniProt O00767)
T1 sequence (O00767 whole entry): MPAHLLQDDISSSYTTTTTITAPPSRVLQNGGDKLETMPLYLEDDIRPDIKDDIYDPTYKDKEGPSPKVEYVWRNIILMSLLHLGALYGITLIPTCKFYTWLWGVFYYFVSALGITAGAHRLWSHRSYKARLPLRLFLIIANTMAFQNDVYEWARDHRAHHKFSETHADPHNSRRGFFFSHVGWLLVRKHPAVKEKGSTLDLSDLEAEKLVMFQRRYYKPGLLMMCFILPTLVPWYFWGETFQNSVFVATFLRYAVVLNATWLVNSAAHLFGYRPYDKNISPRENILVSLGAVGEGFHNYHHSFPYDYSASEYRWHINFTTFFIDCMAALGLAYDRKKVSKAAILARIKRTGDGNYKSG
Description: Inhibition of SCD1 in human HepG2 cells assessed as ratio of cellular protein product over substrate after 72 hrs

[2] = biological target: T2, dCTP pyrophosphatase 1 (Homo sapiens, UniProt Q9H773)
T2 sequence (Q9H773 whole entry): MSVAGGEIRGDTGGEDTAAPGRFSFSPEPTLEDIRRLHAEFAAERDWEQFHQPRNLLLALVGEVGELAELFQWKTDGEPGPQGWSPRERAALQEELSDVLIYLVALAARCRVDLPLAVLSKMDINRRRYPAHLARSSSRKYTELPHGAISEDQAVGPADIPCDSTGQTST
Description: Inhibition of human full length N-terminal His-tagged dCTPase expressed in Escherichia coli BL21(DE3) using dCTP as substrate by HTS-based malachite green assay

[3] = Drug uptake in human MCF7 cells up to 20 uM; format: ADME, cell-based
[4] = Drug uptake in human HL60 cells at 10 uM; format: ADME, cell-based; settings: hl-60, 10 µM
[5] = tested on: hTERT-BJ; test: Cytotoxicity against human hTERT-BJ cells assessed as reduction in cell viability after 72 hrs by Resazurin assay; format: cell-based
[6] = tested on: HL-60; test: Synergistic cytotoxicity against human HL60 cells assessed as reduction in cell viability after 72 hrs in presence of 5-AzaC by Resazurin assay; format: functional

IC50 [2] [nM]	SMILES	also measured
	Cc1nnc(-c2ccc(N3CCC(Oc4cc(F)ccc4Cl)CC3)nn2)o1	IC50 [1]: 0.67 µM
> 10000	O=C(Nc1ccccc1)c1ccc(N2CCN(C(=O)c3ccccc3C(F)(F)F)CC2)nn1	
240	O=C(NCc1ccccc1)c1ccc(N2CCN(C(=O)c3ccccc3C(F)(F)F)CC2)nn1	
34	C#CCNC(=O)c1ccc(N2CCN(S(=O)(=O)c3cccc(Cl)c3C)CC2)nn1	
65	Cc1ccccc1S(=O)(=O)N1CCN(c2ccc(C(=O)NCc3ccc(F)cc3)nn2)CC1	Drug uptake [3]: > 50%; Drug uptake [4]: > 50%
1700	Cc1ccccc1S(=O)(=O)N1CC2CC1CN2c1ccc(C(=O)NCc2ccccc2)nn1 (stereo not given)	
> 10000	Cc1ccccc1S(=O)(=O)N1CCN(c2ccc(S(=O)(=O)CCc3ccccc3)nn2)CC1	
170	Cc1ccccc1S(=O)(=O)N1CCN(c2ccc(C(=O)NCc3ccccc3)nn2)CC1	Activity [5]: Non-Toxic; CI [6]: <1; IC50 [1]: 19.7 µM
350	O=C(NCc1ccccc1)c1ccc(N2CCN(S(=O)(=O)c3ccccc3F)CC2)nn1	
1100	Cc1ccccc1[S+]([O-])C1CCN(c2ccc(C(=O)NCc3ccccc3)nn2)CC1 (stereo not given)	
19	Cc1c(Cl)cccc1S(=O)(=O)N1CCN(c2ccc(C(=O)NCc3cccs3)nn2)CC1	CI [6]: <1
3200	Cc1ccccc1S(=O)(=O)N1CCCN(c2ccc(C(=O)NCc3ccccc3)nn2)CC1	
36	Cc1ncccc1S(=O)(=O)N1CCN(c2ccc(C(=O)NCc3ccc(F)cc3)nn2)CC1	Activity [5]: Non-Toxic; Drug uptake [3]: > 50%; Drug uptake [4]: > 50%
> 10000	C=C(CCc1ccc(F)cc1)c1ccc(N2CCN(S(=O)(=O)c3ccccc3C)CC2)nn1	
260	O=C(NCc1ccccc1)c1ccc(N2CCN(S(=O)(=O)c3ccccc3N3CCC(O)CC3)CC2)nn1	
25	O=C(NCc1ccc(F)cc1)c1ccc(N2CCN(S(=O)(=O)c3cccnc3Cl)CC2)nn1	
530	Cc1ccccc1S(=O)(=O)C1CCN(c2ccc(C(=O)NCc3ccccc3)nn2)CC1	
> 10000	Cc1ccccc1S(=O)(=O)N1CCN(c2ccc(C3(CCc4ccc(F)cc4)COC3)nn2)CC1	
250	O=C(NCc1ccccc1)c1ccc(N2CCN(S(=O)(=O)c3ccccc3C(F)(F)F)CC2)nn1	
502	CN(C)c1ccccc1S(=O)(=O)N1CCN(c2ccc(C(=O)NCc3ccccc3)nn2)CC1	
41	C#CCOC(=O)c1ccc(N2CCN(S(=O)(=O)c3ccccc3N3CCC(O)CC3)CC2)nn1	Activity [5]: Non-Toxic; Drug uptake [3]: > 50%; Drug uptake [4]: > 50%
258	Cc1ccccc1S(=O)(=O)N1CCN(c2ccc(C(=O)CCc3ccc(F)cc3)nn2)CC1	
51	Cc1ccccc1S(=O)(=O)N1CCN(c2ccc(C(=O)NCc3cccs3)nn2)CC1	CI [6]: <1
> 10000	Cc1ccccc1S(=O)(=O)N1CCN(c2ccc(CNCc3ccccc3)nn2)CC1	
38	Cc1ccccc1S(=O)(=O)N1CCN(c2ccc(C(=O)OCc3ccccc3)nn2)CC1	
> 10000	Cc1ccccc1S(=O)(=O)N1CCN(c2ccc(C(CO)(CO)CCc3ccc(F)cc3)nn2)CC1	
2800	O=C(NCCc1ccccc1)c1ccc(N2CCN(C(=O)c3ccccc3C(F)(F)F)CC2)nn1	
